In patent US10167262B2, “Herbicidal substituted 3-arylpyrazoles” (FMC CORPORATION, priority 2014, dated 2019):

How the values were obtained:
Format in all cases: in vivo
[1] = tested on: ragweed (common ragweed, Ambrosia elatior); assay: Test C pre-/postemergence greenhouse test, plant response rating 0-100; settings: Postemergence
Text: (§1) Seeds of plant species selected from blackgrass (Alopecurus myosuroides), Italian ryegrass (Lolium multiflorum), winter wheat (Triticum aestivum), galium (catchweed bedstraw, Galium aparine), corn (Zea mays), large (Lg) crabgrass (Digitaria sanguinalis), giant foxtail (Setaria faberii), johnsongrass (Sorghum halepense), lambsquarters (Chenopodium album), morningglory (Ipomoea coccinea), yellow nutsedge (Cyperus esculentus), pigweed (Amaranthus retroflexus), ragweed (common ragweed, Ambrosia elatior), soybean (Glycine max), barnyardgrass (Echinochloa crus-galli), oilseed rape (Brassica napus), waterhemp (common waterhemp, Amaranthus rudis), and velvetleaf (Abutilon theophrasti) were planted into a blend of loam soil and sand and treated preemergence with test chemicals formulated in a non-phytotoxic solvent mixture which included a surfactant.
(§2) At the same time, plants selected from these crop and weed species and also winter barley (Hordeum vulgare), bermudagrass (Cynodon dactylon), downy bromegrass (Bromus tectorum), canarygrass (Phalaris minor), cocklebur (common cocklebur, Xanthium strumarium), woolly cupgrass (Eriochloa villosa), deadnettle (henbit deadnettle, Lamium amplexicaule), green foxtail (Setaria viridis), goosegrass (Eleusine indica), surinam grass (Brachiaria decumbens), windgrass (Apera spica-venti), chickweed (common chickweed, Stellaria media), kochia (Kochia scoparia), and wild oat (Avena fatua), were planted in pots containing Redi-Earth® planting medium (Scotts Company, 14111 Scottslawn Road, Marysville, Ohio 43041) comprising spaghnum peat moss, vermiculite, wetting agent and starter nutrients and treated with postemergence applications of test chemicals formulated in the same manner. Plants ranged in height from 2 to 18 cm (1- to 4-leaf stage) for postemergence treatments. Treated plants and controls were maintained in a greenhouse for 13 to 15 days, after which time all species were compared to controls and visually evaluated. Plant response ratings, summarized in Table C, are based on a scale of 0 to 100 where 0 is no effect and 100 is complete control. A dash (-) response means no test result.

[2] = tested on: blackgrass (Alopecurus myosuroides); assay: as above; settings: Postemergence
Text: as §1, §2

[3] = tested on: galium (catchweed bedstraw, Galium aparine); assay: as above; settings: Postemergence
Text: as §1, §2

[4] = tested on: yellow nutsedge (Cyperus esculentus); assay: as above; settings: Postemergence
Text: as §1, §2

[5] = tested on: pigweed (Amaranthus retroflexus); assay: as above; settings: Postemergence
Text: as §1, §2

[6] = tested on: giant foxtail (Setaria faberii); assay: as above; settings: Postemergence
Text: as §1, §2

[7] = tested on: large (Lg) crabgrass (Digitaria sanguinalis); assay: as above; settings: Postemergence
Text: as §1, §2

[8] = tested on: Italian ryegrass (Lolium multiflorum); assay: as above; settings: Postemergence
Text: as §1, §2

soybean (Glycine max) = assay: as above; settings: Postemergence
Text: as §1, §2

[9] = tested on: winter wheat (Triticum aestivum); assay: as above; settings: Postemergence
Text: as §1, §2

[10] = tested on: chickweed (common chickweed, Stellaria media); assay: Test C postemergence greenhouse test, plant response rating 0-100
Text: as §2

kochia (Kochia scoparia) = assay: as above
Text: as §2

wild oat (Avena fatua) = assay: as above
Text: as §2

In the case of CCn1cc(C(=O)c2ccccc2)c(-c2cc(Br)cc(Br)c2)n1 [Compound 38], the “Plant response rating (0 to 100), Ragweed” value ([1]; 62 g ai/ha) is reported as 10, the “Plant response rating (0 to 100), Ragweed” value ([1]; 125 g ai/ha) is reported as 20 and the “Plant response rating, Ragweed” value ([1]; 250 g ai/ha, scale 0 to 100) is reported as 35. The “Plant response rating (0 to 100), Blackgrass” value ([2]; 31 g ai/ha) was 0, the “Plant response rating (0 to 100), Blackgrass” value ([2]; 62 g ai/ha) was 0 and the “Plant response rating (0 to 100), Blackgrass” value ([2]; 125 g ai/ha) was 0. The “Plant response rating, Blackgrass” value ([2]; 250 g ai/ha, scale 0 to 100) was 5, the “Plant response rating (0 to 100), Galium” value ([3]; 31 g ai/ha) was 0 and the “Plant response rating (0 to 100), Galium” value ([3]; 62 g ai/ha) was 0. For the same molecule, the “Plant response rating (0 to 100), Galium” value ([3]; 125 g ai/ha) was 0, the “Plant response rating, Galium” value ([3]; 250 g ai/ha, scale 0 to 100) was 5 and the “Plant response rating (0 to 100), Nutsedge, Yellow” value ([4]; 62 g ai/ha) was 0. The “Plant response rating (0 to 100), Nutsedge, Yellow” value ([4]; 125 g ai/ha) was 0, the “Plant response rating, Nutsedge, Yellow” value ([4]; 250 g ai/ha, scale 0 to 100) was 0 and the “Plant response rating (0 to 100), Pigweed” value ([5]; 62 g ai/ha) was 85. For the same molecule, the “Plant response rating, Pigweed” value ([5]; 250 g ai/ha, scale 0 to 100) was 100, the “Plant response rating (0 to 100), Foxtail, Giant” value ([6]; 31 g ai/ha) was 0 and the “Plant response rating (0 to 100), Foxtail, Giant” value ([6]; 62 g ai/ha) was 0. For the same molecule, the “Plant response rating (0 to 100), Foxtail, Giant” value ([6]; 125 g ai/ha) was 0, the “Plant response rating, Foxtail, Giant” value ([6]; 250 g ai/ha, scale 0 to 100) was 0 and the “Plant response rating (0 to 100), Crabgrass, Large” value ([7]; 31 g ai/ha) was 0. For the same molecule, the “Plant response rating (0 to 100), Crabgrass, Large” value ([7]; 62 g ai/ha) was 0, the “Plant response rating (0 to 100), Crabgrass, Large” value ([7]; 125 g ai/ha) was 0 and the “Plant response rating, Crabgrass, Large” value ([7]; 250 g ai/ha, scale 0 to 100) was 0. The “Plant response rating (0 to 100), Ryegrass, Italian” value ([8]; 62 g ai/ha) was 0, the “Plant response rating (0 to 100), Ryegrass, Italian” value ([8]; 125 g ai/ha) was 0 and the “Plant response rating, Ryegrass, Italian” value ([8]; 250 g ai/ha, scale 0 to 100) was 0. The “Plant response rating (0 to 100), Soybean” value (soybean (Glycine max); 62 g ai/ha) was 0, the “Plant response rating (0 to 100), Soybean” value (soybean (Glycine max); 125 g ai/ha) was 0 and the “Plant response rating, Soybean” value (soybean (Glycine max); 250 g ai/ha, scale 0 to 100) was 0. For the same molecule, the “Plant response rating (0 to 100), Wheat” value ([9]; 62 g ai/ha) was 0, the “Plant response rating (0 to 100), Wheat” value ([9]; 125 g ai/ha) was 0 and the “Plant response rating, Wheat” value ([9]; 250 g ai/ha, scale 0 to 100) was 5. The “Plant response rating (0 to 100), Chickweed” value ([10]; 31 g ai/ha) was 20, the “Plant response rating (0 to 100), Chickweed” value ([10]; 62 g ai/ha) was 50 and the “Plant response rating (0 to 100), Chickweed” value ([10]; 125 g ai/ha) was 60. The “Plant response rating, Chickweed” value ([10]; 250 g ai/ha, scale 0 to 100) was 100, the “Plant response rating (0 to 100), Kochia” value (kochia (Kochia scoparia); 62 g ai/ha) was 35 and the “Plant response rating, Kochia” value (kochia (Kochia scoparia); 250 g ai/ha, scale 0 to 100) was 50. The “Plant response rating (0 to 100), Oat, Wild” value (wild oat (Avena fatua); 62 g ai/ha) was 0, the “Plant response rating (0 to 100), Oat, Wild” value (wild oat (Avena fatua); 125 g ai/ha) was 0 and the “Plant response rating, Oat, Wild” value (wild oat (Avena fatua); 250 g ai/ha, scale 0 to 100) was 0.
